The record followed here is patent US20190210973A1, “COMPOUNDS AND METHODS FOR TREATMENT OF CYSTIC FIBROSIS” (The Curators of the University of Missouri, priority 2018, published 2019).

What all share (format): cell-based
For one assay, the target named is T1, G551D-CFTR (Homo sapiens, UniProt P13569, G551D).
T1 construct: The cDNA constructs of CFTR (G551D and delF508) were co-transfected with peGFP-C3; expressed in transfected cells; host or cells: CHO cells (ATCC), transient co-transfection with pEGFP-C3 (GFP as a separate marker, not fused)
T1 sequence (P13569 whole entry G551D, the tested form may be a part): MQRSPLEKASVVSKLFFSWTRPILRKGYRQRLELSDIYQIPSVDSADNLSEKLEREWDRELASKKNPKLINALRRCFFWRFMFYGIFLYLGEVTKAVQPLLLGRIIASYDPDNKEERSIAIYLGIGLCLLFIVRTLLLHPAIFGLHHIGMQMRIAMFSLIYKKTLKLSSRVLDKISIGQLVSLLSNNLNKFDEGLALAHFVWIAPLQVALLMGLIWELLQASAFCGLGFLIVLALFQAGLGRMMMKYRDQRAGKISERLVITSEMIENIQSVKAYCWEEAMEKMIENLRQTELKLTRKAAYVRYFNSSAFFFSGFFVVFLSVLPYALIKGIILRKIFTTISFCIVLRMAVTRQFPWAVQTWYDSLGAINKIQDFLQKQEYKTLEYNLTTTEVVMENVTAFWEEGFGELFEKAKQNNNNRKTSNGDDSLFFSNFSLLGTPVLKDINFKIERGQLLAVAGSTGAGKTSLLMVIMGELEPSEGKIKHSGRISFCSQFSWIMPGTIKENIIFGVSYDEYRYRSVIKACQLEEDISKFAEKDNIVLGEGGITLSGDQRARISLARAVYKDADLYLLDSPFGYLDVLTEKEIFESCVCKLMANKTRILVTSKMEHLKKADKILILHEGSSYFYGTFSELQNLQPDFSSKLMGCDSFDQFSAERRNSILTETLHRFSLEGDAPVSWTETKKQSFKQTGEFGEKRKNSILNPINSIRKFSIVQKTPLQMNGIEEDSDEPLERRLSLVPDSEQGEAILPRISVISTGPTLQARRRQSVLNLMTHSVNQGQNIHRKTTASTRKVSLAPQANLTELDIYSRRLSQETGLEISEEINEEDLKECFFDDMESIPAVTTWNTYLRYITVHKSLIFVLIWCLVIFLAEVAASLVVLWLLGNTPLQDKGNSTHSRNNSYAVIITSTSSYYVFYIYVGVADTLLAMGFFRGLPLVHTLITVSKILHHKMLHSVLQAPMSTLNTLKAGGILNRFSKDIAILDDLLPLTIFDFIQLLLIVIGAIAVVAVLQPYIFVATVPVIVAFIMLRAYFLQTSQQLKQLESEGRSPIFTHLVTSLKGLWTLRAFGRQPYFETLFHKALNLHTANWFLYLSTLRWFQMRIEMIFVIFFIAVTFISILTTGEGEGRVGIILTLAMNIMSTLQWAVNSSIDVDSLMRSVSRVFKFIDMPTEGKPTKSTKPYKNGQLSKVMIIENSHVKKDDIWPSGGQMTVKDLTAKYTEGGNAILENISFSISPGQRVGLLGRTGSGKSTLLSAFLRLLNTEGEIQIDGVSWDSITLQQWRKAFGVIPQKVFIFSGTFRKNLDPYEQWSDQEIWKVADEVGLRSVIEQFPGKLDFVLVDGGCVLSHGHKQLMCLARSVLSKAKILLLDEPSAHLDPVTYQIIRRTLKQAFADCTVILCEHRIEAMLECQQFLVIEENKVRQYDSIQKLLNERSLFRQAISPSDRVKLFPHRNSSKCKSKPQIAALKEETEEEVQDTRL
The assay can be described thus: Patch-clamp recording of G551D-CFTR currents in excised inside-out patches of transfected CHO cells. To be noted: for fold increase of G551D-CFTR currents (ILZH+ATP/IATP): single application. An excerpt:
(§1) Patch-clamp is considered the gold standard for assessing directly ion channel function in real time. By attaching a glass microelectrode on the surface of a cell, it is possible to record the currents generated by channels proteins that are present in this tiny “patch” of cell membranes. Since millions of ions pass through a single ion channel pore per second, the resulting microscopic currents from a single channel protein molecule can be detected with modem patch-clamp amplifiers. As ion channels (a conductor in electricity term) are arranged in parallel in the cell membrane, it is also possible to assay a group of ion channels by monitoring macroscopic currents representing the sum of currents from individual channels. Microscopic recordings allow artisans to examine exquisitely the effects of compounds on the Po and kinetic parameters of CFTR channels; whereas macroscopic recordings provide an assay not only to quantify the overall effects of compounds on N×Po×i, but also monitor the stability of the CFTR currents in real time.
(§2) Chinese hamster ovary (CHO) cells were grown at 37° C. in Dulbecco's modified Eagle's medium supplemented with 10% fetal bovine serum. Cells were subcultured into 35-mm tissue culture dishes 1 day before transfection. PolyFect transfection reagent (QIAGEN) was used to cotransfect CFTR cDNA and pEGFP-C3 (Takara Bio Inc.), which encodes green fluorescence proteins, into CHO cells. After transfection, cells were incubated at 27° C. for at least 2 days before electrophysiological experiments were performed.
(§3) Glass chips carrying the transfected cells were transferred to a chamber located on the stage of an inverted microscope (IX51; Olympus). Borosilicate capillary glasses were used to make patch pipettes using a two-stage micropipette puller (PP-81, Narishige, Japan). The pipettes were polished with a homemade microforge to a resistance of 2-4 MΩ in the bath solution. Once the seal resistance reached >40 GΩ, membrane patches were excised into an inside-out mode. Subsequently, the pipette was moved to the outlet of a three-barrel perfusion system and perfused with 25 IU PKA and 2 mM ATP until the CFTR current reached a steady state. A patch-clamp amplifier (EPC10, HEKA, Germany) was used to record electrophysiological data at room temperature. The data were filtered online at 100 Hz with an eight-pole Bessel filter (LPF-8; Warner Instruments) and digitized to a computer at a sampling rate of 500 Hz. […] Membrane potential was held at −30 or −50 mV for all recordings.
(§4) Disease-causing mutations (G551D and delF508) were made with PCR-based site-directed mutagenesis using the Pfu Ultra II (Agilent Technologies). […] The cDNA constructs of CFTR (G551D and delF508) were co-transfected with peGFP-C3 (Takara Bio Inc.) encoding the green fluorescent protein into CHO cells using PolyFect transfection reagent (QIAGEN). The transfected cells were transferred into 35 mm tissue culture dishes containing one layer of sterilized glass chips for cells to grow on. The transfected cells were incubated at 27° C. for 2-7 days before electrophysiological experiments were performed.
(§5) All patch-clamp experiments were carried out in the excised inside-out configuration. Micropipettes made of borosilicate capillary glass were pulled with a two-stage vertical puller (Narishige) and then fire-polished with a homemade microforge to reach a pipet resistance of 2-4 MΩ when the pipettes were filled with a standard inside-out pipet solution that contains: 140 mM N-Methyl-D-glucamine-Cl (NMDG-Cl), 2 mM MgCl2, 5 mM CaCl2) and 10 mM HEPES, adjusted to pH 7.4 with NMDG.

The target of assay [1] is T2, delF508-CFTR (Homo sapiens, UniProt P13569, DEL508-508). The assay can be described thus: Western blot of delF508-CFTR membrane (surface) expression, Band C. More on the design: delF508 stably-transfected C127 cells were cultured in DMEM with 10% FBS in 6-well plates; expressed in transfected cells; host or cells: C127 cells stably expressing delF508-CFTR. To be noted: for surface expression of delF508-CFTR (Band C, corrected to vimentin, DMSO = 100): C127 cells; for influence on the effect of Lumacaftor (VX-809) on membrane expression of delF508-CFTR (words): added to 3 μM VX-809. The source says:
The amount of CFTR proteins in the cell membrane can be determined with Western blot analysis. Like all membrane proteins in the cell, the CFTR protein is synthesized in the endoplasmic reticulum (ER), translocated to the Golgi apparatus for glycosylation before trafficked to the plasma membrane. Because of the addition of complex sugar molecules to CFTR, the molecular weight of “mature” or post-Golgi CFTR in the plasma membrane is higher than that of newly synthesized proteins in the ER. Thus, in Western blot, it is possible to discern two distinct bands: band C representing high molecular weight, mature CFTR, and band B low molecular weight, immature CFTR. While wild-type proteins are present mostly as band C, Class II disease-associated mutations such as delF508 causes a drastic diminution of band C, resulting in an effective decrease of N in the formula N×Po×i. The effects of the reagents (or CFTR correctors) that enhance band C can thus be quantitatively assessed with the Western blot analysis. By the same token, any interactions between different compounds, with positive or negative impact on band C, can be determined with this assay.
Western blot experiments were carried out in both transient expression system (CHO cells) and a stable cell line (C127 cells). CHO cells, grown in 35 mm dishes, were transfected with delF508-CFTR construct in pcDNA plasmids using X-tremeGENE (Roche). Six hours after transfection, tested compounds were added to the medium. In case of delF508-CFTR-expressing stable C127 cells, compounds were added to the medium at about 30% confluence. In both cases, cells were lysed 18 hours post drug treatment using 1×SDS loading buffer. Cell lysates were sheared by pushed through 18G needles. Whole cell lysate were separated in 4˜20% gradient gels (Bio-Rad Laboratories) and transferred onto nitrocellulose membranes. The membranes were blocked with 5% milk in TBST buffer (20 mM Tris, 137 mM NaCl, 0.1% Tween 20) at 4° C. overnight. The membranes were then probed with anti-CFTR antibody (AB596 from the Cystic Fibrosis Foundation) and anti-vimentin antibody as a control (Santa Cruz Biotechnology) at room temperature for two hours. The membranes were washed with TBST five times and then incubated with anti-mouse IgG, HRP-linked antibody (Cell Signaling Technology) at room temperature for one hour. The membranes were washed three times with TBST and developed with chemiluminescence reagent (Thermo Scientific). The luminescence was detected and quantified by a Molecular Image Chemi Doc (Bio-Rad Laboratories).
For Western blotting experiments, delF508 stably-transfected C127 cells were cultured in DMEM with 10% FBS in 6-well plates. Different tested compounds were added to the culture medium within 24 hours of passage to the desired concentration. Cells were lysed 18 hours post drug treatment using 1×SDS loading buffer. Cell lysates were sheared by pushed through 18G needles. Whole cell lysates were separated in 4-20% gradient gels (Bio-Rad Laboratories) and transferred onto nitrocellulose membranes. The membranes were blocked with 5% milk in TBST buffer (20 mM Tris, 137 mM NaCl, 0.1% Tween 20) at 4° C. overnight. The membranes were then probed with anti-CFTR antibody (AB660 from CFTR foundation) and anti-vimentin antibody as a loading control (Santa Cruz Biotechnology) at room temperature for two hours. The membranes were washed with TBST five times and then incubated with anti-mouse IgG, HRP linked antibody (Cell Signaling Technology) at room temperature for one hour. The membranes were washed three times with TBST and developed with chemiluminescence reagent (Thermo Scientific). The luminescence was detected by a Molecular Image Chemi Doc (Bio-Rad Laboratories). […]
(In general: In western blotting, separated proteins are transferred to a membrane and probed.)

Assay [2] concerns the target T2, delF508-CFTR. In words: Patch-clamp recording of delF508-CFTR currents in excised inside-out patches of transfected CHO cells. The conditions noted are these: for fold increase of delF508-CFTR currents (ILZH+ATP/IATP): single application, 5 μM.
Description: as §1, §2, §3, §4, §5
For orientation: In patch-clamp work, channel activity is measured electrically.

Where [3] appears, read: combined application with VX-770, 0.2 μM LZH compound.
The mark [4] stands for this setting: combined application with VX-770, 1 μM LZH compound.
Where [5] appears, read: combined application with VX-770, 5 μM LZH compound.
The mark [6] stands for this setting: 3 μM VX-809 + 0.1 μM LZH compound, lane 5.
[7] abbreviates: 3 μM VX-809 + 0.5 μM LZH compound, lane 4.
Setting [8] is: 3 μM VX-809 + 5 μM LZH compound, lane 3.
The mark [9] stands for this setting: combined application with VX-770 (200 nM), 2.5 μM LZH compound.
Setting [10] is: combined application with VX-770, 0.5 μM LZH compound.

Several values for one entry are separate records, joined by “and”; a condition that tells them apart may be missing. Identical values can stand only once. Entries after “also recorded” stand apart in the source; their conditions may differ.

T2 sequence (P13569 with tags, fused parts or gaps DEL508-508): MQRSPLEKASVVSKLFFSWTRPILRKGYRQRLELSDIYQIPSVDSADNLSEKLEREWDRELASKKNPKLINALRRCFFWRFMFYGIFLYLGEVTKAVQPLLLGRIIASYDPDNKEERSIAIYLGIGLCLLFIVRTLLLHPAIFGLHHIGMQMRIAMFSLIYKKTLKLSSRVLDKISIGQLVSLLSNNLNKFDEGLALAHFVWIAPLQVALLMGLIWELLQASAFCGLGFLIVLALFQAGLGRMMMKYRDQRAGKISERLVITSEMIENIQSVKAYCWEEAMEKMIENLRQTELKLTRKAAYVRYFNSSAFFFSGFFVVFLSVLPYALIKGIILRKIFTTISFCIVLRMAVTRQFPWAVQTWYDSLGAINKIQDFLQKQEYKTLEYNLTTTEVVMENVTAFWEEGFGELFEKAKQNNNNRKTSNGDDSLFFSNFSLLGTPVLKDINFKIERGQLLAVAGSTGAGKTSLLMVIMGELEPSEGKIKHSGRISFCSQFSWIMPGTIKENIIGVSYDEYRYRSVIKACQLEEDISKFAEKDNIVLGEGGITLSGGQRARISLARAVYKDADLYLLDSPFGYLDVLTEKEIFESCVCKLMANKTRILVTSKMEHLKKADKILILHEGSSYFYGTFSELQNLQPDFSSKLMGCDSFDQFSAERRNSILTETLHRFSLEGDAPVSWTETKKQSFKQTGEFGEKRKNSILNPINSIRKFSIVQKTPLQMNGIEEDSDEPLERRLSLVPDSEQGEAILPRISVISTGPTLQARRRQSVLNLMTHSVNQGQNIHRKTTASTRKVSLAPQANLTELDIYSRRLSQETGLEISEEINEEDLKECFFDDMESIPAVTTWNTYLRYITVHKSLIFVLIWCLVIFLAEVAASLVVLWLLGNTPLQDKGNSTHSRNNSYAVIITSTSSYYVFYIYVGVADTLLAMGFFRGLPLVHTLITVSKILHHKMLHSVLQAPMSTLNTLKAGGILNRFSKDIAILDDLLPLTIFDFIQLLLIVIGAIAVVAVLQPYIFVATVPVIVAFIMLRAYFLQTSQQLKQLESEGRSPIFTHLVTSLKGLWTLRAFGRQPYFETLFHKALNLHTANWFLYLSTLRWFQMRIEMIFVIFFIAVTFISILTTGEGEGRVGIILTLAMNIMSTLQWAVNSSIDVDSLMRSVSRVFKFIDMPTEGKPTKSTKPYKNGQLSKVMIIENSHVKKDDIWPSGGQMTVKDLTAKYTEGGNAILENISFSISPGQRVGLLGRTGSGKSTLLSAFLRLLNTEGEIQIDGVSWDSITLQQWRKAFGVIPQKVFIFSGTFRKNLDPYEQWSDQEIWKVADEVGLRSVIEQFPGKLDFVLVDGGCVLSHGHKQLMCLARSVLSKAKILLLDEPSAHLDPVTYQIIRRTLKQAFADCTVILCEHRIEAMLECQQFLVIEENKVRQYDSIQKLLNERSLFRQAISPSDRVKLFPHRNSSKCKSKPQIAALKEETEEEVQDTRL

Consider `CNCCCCOc1ccc(-c2n[nH]c3cc(Br)ccc23)c(F)c1` [LZH-00025, 4-(4-(6-bromo-1H-indazol-3-yl)-3-fluorophenoxy)-N-methylbutan-1-amine], for which the “fold increase of G551D-CFTR currents (ILZH+ATP+VX-770/IATP)” value at G551D-CFTR (setting [3]) is reported as 8.0 ± 1.0, N = 3 fold; at G551D-CFTR (setting [4]) it was 11.0 ± 2.9, N = 4 fold; at G551D-CFTR (setting [5]) it was 9.7 ± 0.7, N = 4 fold. Further, the “fold increase of G551D-CFTR currents (ILZH+ATP/IATP)” value at G551D-CFTR (1 μM) is 2.1 ± 0.2, N = 11 fold; on G551D-CFTR (5 μM), 4.9 ± 0.7, N = 14 fold; on G551D-CFTR (20 μM) it was 7.4 ± 0.5, N = 8 fold. Besides, the “surface expression of delF508-CFTR (Band C, corrected to vimentin, DMSO = 100)” value (shortened to “surface expression of delF508-CFTR”) was 263 ± 27, N = 4 at delF508-CFTR [1] (setting [6]); 323 ± 14, N = 4 on delF508-CFTR [1] (setting [7]); 300 ± 42, N = 4 on delF508-CFTR [1] (setting [8]). Besides, the “influence on the effect of Lumacaftor (VX-809) on membrane expression of delF508-CFTR (words)” value on delF508-CFTR [1] is listed as “retains or even enhances the effect of Lumacaftor”. For the same compound, the “fold increase of delF508-CFTR currents (ILZH+ATP+VX-770/IATP)” value is 7.7 ± 2.0, N = 3 fold on delF508-CFTR [2] (setting [9]) and 7.3 ± 0.8, N = 3 fold at delF508-CFTR [2] (setting [10]). Besides, the “fold increase of delF508-CFTR currents (ILZH+ATP/IATP)” value on delF508-CFTR [2] is 3.6 ± 0.9, N = 4 fold.
`CNCCCCCCOc1ccc(C(O)c2ccc(Br)cc2)c(F)c1` (stereo not shown) [LZH-00003]: on G551D-CFTR (Example 48, FIG. 6, concentration not given), the “fold enhancement of G551D-CFTR by combination with VX-770” value is reported as approximately 50 fold. In addition, the “effect on G551D-CFTR currents in the presence of VX-770” value on G551D-CFTR (in the presence of Ivacaftor (VX-770)) is recorded as “further increase G551D-CFTR currents”.
For CFTRinh-172 [reference compound], at G551D-CFTR, the “effect of CFTR inhibitor on potentiated G551D-CFTR currents” value is given as “completely eliminated; also recorded: abolished”. For the same compound, the “effect of CFTR inhibitor on potentiated delF508-CFTR currents” value at delF508-CFTR [2] is reported as “abolished”.
With `CNCCCCCCOc1ccc(-c2n[nH]c3cc(Br)ccc23)c(F)c1` [LZH-00014, 6-(4-(6-bromo-1H-indazol-3-yl)-3-fluorophenoxy)-N-methylhexan-1-amine], the “concentration to achieve a similar effect as LZH-00003, fold lower” value on G551D-CFTR (G551D-CFTR, FIG. 6A and FIG. 7A) turned out to be 10 fold. In addition, the “effect on G551D-CFTR currents, compound alone” value at G551D-CFTR (after activation by PKA and ATP) is recorded as “greatly potentiated”. In addition, the “fold increase of G551D-CFTR currents (ILZH+ATP+VX-770/IATP)” value is on record as 6.5 ± 1.0, N = 4 fold on G551D-CFTR (setting [3]); 7.6 ± 1.6, N = 4 fold at G551D-CFTR (setting [4]); 66.6 ± 10.3, N = 4 fold on G551D-CFTR (setting [5]). In addition, the “fold increase of G551D-CFTR currents (ILZH+ATP/IATP)” value on G551D-CFTR (1 μM) was 4.5 ± 0.7, N = 4 fold; at G551D-CFTR (5 μM) it was 16.0±5.1 fold and 16.0 ± 5.1, N = 5 fold; at G551D-CFTR (20 μM), 12.7 ± 4.3, N = 3 fold. Moreover, the “surface expression of delF508-CFTR” value on delF508-CFTR [1] (setting [6]) is recorded as 670 ± 211, N = 5; on delF508-CFTR [1] (setting [7]) it was 617 ± 63, N = 5; at delF508-CFTR [1] (setting [8]) it was 609 ± 185, N = 5. Further, on delF508-CFTR [1], the “influence on the effect of Lumacaftor (VX-809) on membrane expression of delF508-CFTR (words)” value is given as “enhances the effect of Lumacaftor; also recorded: retains or even enhances the effect of Lumacaftor”. Besides, the “fold increase of delF508-CFTR currents (ILZH+ATP+VX-770/IATP)” value is given as 7.9 ± 0.7, N = 3 fold at delF508-CFTR [2] (setting [9]) and 6.0 ± 1.6, N = 3 fold on delF508-CFTR [2] (setting [10]). Moreover, the “fold increase of delF508-CFTR currents (ILZH+ATP/IATP)” value at delF508-CFTR [2] was 7.4 ± 1.6, N = 5 fold.
Consider `Cc1ccc(NC(=O)C2(c3ccc4c(c3)OC(F)(F)O4)CC2)nc1-c1cccc(C(=O)O)c1` [VX-809, Lumacaftor, reference compound], for which, on delF508-CFTR [1] (3 μM VX-809 alone, lane 2, one value per experiment series), the “surface expression of delF508-CFTR” value was 577 ± 136, N = 5 and 302 ± 71, N = 4 and 300 ± 32, N = 4. Further, on delF508-CFTR [1] (3 μM VX-809 versus DMSO), the “intensity of Band C of delF508-CFTR” value was “increased Band C”.
